Reference: patent US20230049952A1, “METHODS AND COMPOUNDS FOR RESTORING MUTANT P53 FUNCTION” (PMV Pharmaceuticals, Inc., priority 2020, published 2023)
Where “and” joins values, the source holds several entries; their conditions need not be identical. Equal entries are not always repeated.

Key:
[1] = Compound 2 and metabolites in rat plasma, 50 mg/kg PO QD×10; format: in vivo; settings: for % of Parent / AUC0-24 / AUC0-last: rat; for AUC0-24: Compound 2 50 mg/kg PO; for Average Concentration: rat plasma
Description: The proposed metabolite pathway was determined in vitro, and levels of potential metabolites were measured by LC/MS-MS in rat plasma remaining from the dose rising 10-day repeat dose study in rats. Six potential metabolites were quantified in the low (50 mg/kg) single dose rats. […] Rats were rotated between timepoints to form a composite PK curve. […] A 100 μL aliquot of the supernatant was transferred to the sample plate and mixed with 100 μL of water, then the plate was shaken at 800 rpm for 10 min. 0.5-2 μL supernatant was then injected into a Triple Quad 6500+ for LC-MS/MS analysis. The standard curve was generated at 1-3000 ng/mL for the compounds in rat plasma (EDTA-K2).
The male and female PK parameters were averaged together since there was <2-fold variation between the genders. All values deemed below the level of quantification (BLQ) were excluded from the PK parameters calculations.

[2] = system: NUGC-3_KO_p53i; test: p53 pathway gene profiling, doxycycline-induced WT p53; format: cell-based, human; settings: doxycycline 50 ng/ml
[3] = Compound 2 50 mg/kg PO QD×1, 1 h, 50 mg/kg
[4] = Compound 2 50 mg/kg PO QD×1, 2 h, 50 mg/kg
[5] = Compound 2 50 mg/kg PO QD×1, 4 h, 50 mg/kg
[6] = Compound 2 50 mg/kg PO QD×1, 8 h, 50 mg/kg
[7] = Compound 2 50 mg/kg PO QD×1, 24 h
[8] = Compound 2 50 mg/kg PO QD×10, 1 h post tenth dose, 50 mg/kg
[9] = Compound 2 50 mg/kg PO QD×10, 2 h post tenth dose, 50 mg/kg
[10] = Compound 2 50 mg/kg PO QD×10, 4 h post tenth dose, 50 mg/kg
[11] = Compound 2 50 mg/kg PO QD×10, 8 h post tenth dose, 50 mg/kg
[12] = Compound 2 50 mg/kg PO QD×10, 24 h post tenth dose, 50 mg/kg
[13] = Compound 2 50 mg/kg PO QD×10, 48 h post tenth dose
[14] = Compound 2 50 mg/kg PO QD×10, 72 h post tenth dose
[15] = Compound 2 50 mg/kg PO QD×10, 96 h post tenth dose
[16] = Day 1, of Compound 2 AUC0-24, 50 mg/kg PO
[17] = Day 10, of Compound 2 AUC0-last, 50 mg/kg PO QD×10
[18] = Day 10, Compound 2 50 mg/kg PO QD×10
[19] = Compound 2 50 mg/kg PO QD×1, 1 h
[20] = Compound 2 50 mg/kg PO QD×1, 2 h
[21] = Compound 2 50 mg/kg PO QD×1, 4 h
[22] = Compound 2 50 mg/kg PO QD×1, 8 h
[23] = Compound 2 50 mg/kg PO QD×10, 1 h post tenth dose
[24] = Compound 2 50 mg/kg PO QD×10, 2 h post tenth dose
[25] = Compound 2 50 mg/kg PO QD×10, 4 h post tenth dose
[26] = Compound 2 50 mg/kg PO QD×10, 8 h post tenth dose
[27] = Compound 2 50 mg/kg PO QD×10, 24 h post tenth dose
[28] = n=3, * basal expression level is low

Compound: CCn1c(C#CCNc2ccc(Cl)cc2)cc2cc(CNC3CCN(C)CC3)ccc21 [Compound 7, 1-(p-Chlorophenylamino)-3-{1-ethyl-5-[(1-methyl-4-piperidylamino)methyl]-1H-indol-2-yl}-2-propyne]
- calculated concentration in rat plasma (individual rats) [1, 3]: 1.44 ng/mL and 1.36 ng/mL and 1.19 ng/mL and 1.33 ng/mL and 1.49 ng/mL and 1.39 ng/mL
- calculated concentration in rat plasma (individual rats) [1, 4]: 4.12 ng/mL and 1.95 ng/mL and 1.67 ng/mL and 1.93 ng/mL and 1.81 ng/mL and 1.70 ng/mL
- calculated concentration in rat plasma (individual rats) [1, 5]: 2.46 ng/mL and 2.66 ng/mL and 2.27 ng/mL and 1.68 ng/mL and 1.81 ng/mL and 2.04 ng/mL
- calculated concentration in rat plasma (individual rats) [1, 6]: 3.52 ng/mL and 2.72 ng/mL and 2.19 ng/mL and 2.24 ng/mL and 2.20 ng/mL and 2.11 ng/mL
- calculated concentration in rat plasma (individual rats) [1, 7]: BLQ
- calculated concentration in rat plasma (individual rats) [1, 8]: 1.25 ng/mL and 1.46 ng/mL and 1.42 ng/mL and 1.49 ng/mL and 1.92 ng/mL and 1.65 ng/mL
- calculated concentration in rat plasma (individual rats) [1, 9]: 1.81 ng/mL and 2.19 ng/mL and 1.99 ng/mL and 1.41 ng/mL and 1.79 ng/mL and 1.66 ng/mL
- calculated concentration in rat plasma (individual rats) [1, 10]: 2.46 ng/mL and 2.18 ng/mL and 2.20 ng/mL and 2.42 ng/mL and 2.00 ng/mL and 1.30 ng/mL
- calculated concentration in rat plasma (individual rats) [1, 11]: 2.31 ng/mL and 2.45 ng/mL and 2.79 ng/mL and 1.81 ng/mL and 2.20 ng/mL and 2.21 ng/mL
- calculated concentration in rat plasma (individual rats) [1, 12]: BLQ (3×) and 1.07 ng/mL and 1.06 ng/mL and 1.16 ng/mL
- calculated concentration in rat plasma (individual rats) [1, 13]: BLQ
- calculated concentration in rat plasma (individual rats) [1, 14]: BLQ
- calculated concentration in rat plasma (individual rats) [1, 15]: BLQ
- % of Parent [1, 16]: 0.0%
- AUC0-24 ([1]; Day 1): 16 ng·h/mL
- % of Parent [1, 17]: 0.0%
- AUC0-last [1, 18]: 28 ng·h/mL
- Average Concentration [1, 19]: 1.37 ng/mL
- Average Concentration [1, 20]: 2.20 ng/mL
- Average Concentration [1, 21]: 2.15 ng/mL
- Average Concentration [1, 22]: 2.50 ng/mL
- Average Concentration [1, 7]: BLQ
- Average Concentration [1, 23]: 1.53 ng/mL
- Average Concentration [1, 24]: 1.81 ng/mL
- Average Concentration [1, 25]: 2.09 ng/mL
- Average Concentration [1, 26]: 2.30 ng/mL
- Average Concentration [1, 27]: 1.10 ng/mL
- Average Concentration [1, 13]: BLQ
- Average Concentration [1, 14]: BLQ
- Average Concentration [1, 15]: BLQ

Compound: CCn1c(C#CCNc2ccc(C)nc2)cc2cc(CNC3CCOCC3)ccc21 [Compound 8, 3-{1-Ethyl-5-[(tetrahydro-2H-pyran-4-ylamino)methyl]-1H-indol-2-yl}-1-(6-methyl-3-pyridylamino)-2-propyne]
- calculated concentration in rat plasma (individual rats) [1, 3]: 28.5 ng/mL and 16.5 ng/mL and 13.4 ng/mL and 8.05 ng/mL and 22.8 ng/mL and 22.6 ng/mL
- calculated concentration in rat plasma (individual rats) [1, 4]: 88.9 ng/mL and 36.3 ng/mL and 32.5 ng/mL and 78.0 ng/mL and 62.0 ng/mL and 51.5 ng/mL
- calculated concentration in rat plasma (individual rats) [1, 5]: 84.8 ng/mL and 81.1 ng/mL and 34.9 ng/mL and 38.5 ng/mL and 52.9 ng/mL and 58.3 ng/mL
- calculated concentration in rat plasma (individual rats) [1, 6]: 77.5 ng/mL and 46.5 ng/mL and 86.3 ng/mL and 203 ng/mL and 87.6 ng/mL and 73.8 ng/mL
- calculated concentration in rat plasma (individual rats) ([1]; Compound 2 50 mg/kg PO QD×1, 24 h, 50 mg/kg): 2.71 ng/mL and 1.20 ng/mL and 1.36 ng/mL and 2.31 ng/mL and 2.43 ng/mL and 1.25 ng/mL
- calculated concentration in rat plasma (individual rats) [1, 8]: 16.5 ng/mL and 6.52 ng/mL and 10.4 ng/mL and 6.59 ng/mL and 46.7 ng/mL and 24.4 ng/mL
- calculated concentration in rat plasma (individual rats) [1, 9]: 14.6 ng/mL and 17.1 ng/mL and 27.6 ng/mL and 38.9 ng/mL and 57.5 ng/mL and 24.2 ng/mL
- calculated concentration in rat plasma (individual rats) [1, 10]: 39.0 ng/mL and 39.4 ng/mL and 22.5 ng/mL and 92.1 ng/mL and 65.1 ng/mL and 19.9 ng/mL
- calculated concentration in rat plasma (individual rats) [1, 11]: 29.5 ng/mL and 35.5 ng/mL and 57.2 ng/mL and 121 ng/mL and 135 ng/mL and 67.6 ng/mL
- calculated concentration in rat plasma (individual rats) [1, 12]: 1.63 ng/mL and 2.61 ng/mL and 2.12 ng/mL and 10.6 ng/mL and 7.70 ng/mL and 8.00 ng/mL
- calculated concentration in rat plasma (individual rats) ([1]; Compound 2 50 mg/kg PO QD×10, 48 h post tenth dose, 50 mg/kg): BLQ (4×) and 1.01 ng/mL and 1.21 ng/mL
- calculated concentration in rat plasma (individual rats) [1, 14]: BLQ
- calculated concentration in rat plasma (individual rats) [1, 15]: BLQ
- % of Parent [1, 16]: 1.6%
- AUC0-24 ([1]; Day 1): 1254 ng·h/mL
- % of Parent [1, 17]: 0.9%
- AUC0-last [1, 18]: 1021 ng·h/mL
- Average Concentration [1, 19]: 18.64 ng/mL
- Average Concentration [1, 20]: 58.20 ng/mL
- Average Concentration [1, 21]: 58.42 ng/mL
- Average Concentration [1, 22]: 95.78 ng/mL
- Average Concentration [1, 7]: 1.88 ng/mL
- Average Concentration [1, 23]: 18.52 ng/mL
- Average Concentration [1, 24]: 29.98 ng/mL
- Average Concentration [1, 25]: 46.33 ng/mL
- Average Concentration [1, 26]: 74.30 ng/mL
- Average Concentration [1, 27]: 5.44 ng/mL
- Average Concentration [1, 13]: 1.11 ng/mL
- Average Concentration [1, 14]: BLQ
- Average Concentration [1, 15]: BLQ

Compound: C[C@H]1c2cccc(O)c2C(=O)C2=C(O)[C@]3(O)C(=O)C(C(N)=O)=C(O)[C@@H](N(C)C)[C@@H]3[C@@H](O)[C@@H]21 [Doxycycline]
- APAF1 fold change ([2]; n=3): 2.40 ± 0.16 fold
- BAX fold change ([2]; n=3): 2.85 ± 0.08 fold
- BBC3 fold change ([2]; n=3): 2.46 ± 0.06 fold
- BIRC5 fold change ([2]; n=3): 0.52 ± 0.03 fold
- BRCA1 fold change ([2]; n=3): 0.67 ± 0.03 fold
- BRCA2 fold change ([2]; n=3): 0.74 ± 0.02 fold
- CCNB1 fold change ([2]; n=3): 0.57 ± 0.01 fold
- CCNE 1 fold change ([2]; n=3): 0.70 ± 0.01 fold
- CCNG 1 fold change ([2]; n=3): 1.65 ± 0.05 fold
- CDC25A fold change ([2]; n=3): 0.61 ± 0.04 fold
- CDC25C fold change ([2]; n=3): 0.58 ± 0.02 fold
- CDK1 fold change ([2]; n=3): 0.71 ± 0.01 fold
- CDKN1A fold change ([2]; n=3): 37.37 ± 0.55 fold
- CHEK1 fold change ([2]; n=3): 0.71 ± 0.02 fold
- CHEK2 fold change ([2]; n=3): 0.74 ± 0.01 fold
- DNMT1 fold change ([2]; n=3): 0.78 ± 0.03 fold
- E2F1 fold change ([2]; n=3): 0.63 ± 0.02 fold
- FAS fold change ([2]; n=3): 7.34 ± 0.04 fold
- GADD45A fold change ([2]; n=3): 3.68 ± 0.20 fold
- MDM2 fold change ([2]; n=3): 12.97 ± 0.29 fold
- MSH2 fold change ([2]; n=3): 0.70 ± 0.02 fold
- PIDD1 fold change ([2]; n=3): 2.75 ± 0.05 fold
- PPM1D fold change ([2]; n=3): 2.21 ± 0.10 fold
- PRC1 fold change ([2]; n=3): 0.64 ± 0.01 fold
- SESN2 fold change ([2]; n=3): 2.50 ± 0.12 fold
- TNFRSF10B fold change ([2]; n=3): 1.88 ± 0.04 fold
- TNFRSF10D fold change ([2]; n=3): 2.73 ± 0.04 fold
- TP53 fold change ([2]; n=3): 25.95 ± 0.84 fold
- BTG2* fold change [2, 28]: 27.82 ± 2.42 fold
- EGR1* fold change [2, 28]: 4.40 ± 0.50 fold
- IL6* fold change [2, 28]: 1.23 ± 0.01 fold
